System: NHBE cells
Experiment: Biolog metabolic array: substrate use by NHBE cells with or without CA09 infection
Assay type: cell-based, human
[1] = Control (uninfected) NHBE cells
[2] = Virus (CA09-infected NHBE cells, MOI 1)
[3] = Virus: CA09-infected NHBE cells, MOI 1, Biolog PMM2

CC(=O)C(C)O (stereo not shown) [3-Hydroxy 2-Butanone]
590 nm absorbance normalized to zero hour (substrate use), 1 hr [1]: 1.49
590 nm absorbance normalized to zero hour (substrate use), 2 hr [1]: 1.75
590 nm absorbance normalized to zero hour (substrate use), 3 hr [1]: 1.64
590 nm absorbance normalized to zero hour (substrate use), 4 hr [1]: 1.71
590 nm absorbance normalized to zero hour (substrate use), 6 hr [1]: 0.48
590 nm absorbance normalized to zero hour (substrate use), 8 hr [1]: 1.86
590 nm absorbance normalized to zero hour (substrate use), 9 hr [1]: 7.44
590 nm absorbance normalized to zero hour (substrate use), 10 hr [1]: 7.39
590 nm absorbance normalized to zero hour (substrate use), 11 hr [1]: 2.14
Substrate use, 590 nm absorbance normalized to zero hour, 1 hr (Control (uninfected) NHBE cells, Biolog PMM2, 1 hr): 1.49
Substrate use, 590 nm absorbance normalized to zero hour, 5 hr (Control (uninfected) NHBE cells, Biolog PMM2, 5 hr): 2.01
Substrate use, 590 nm absorbance normalized to zero hour, 7 hr (Control (uninfected) NHBE cells, Biolog PMM2, 7 hr): 1.80
590 nm absorbance normalized to zero hour (substrate use), 1 hr [2]: 1.24
590 nm absorbance normalized to zero hour (substrate use), 2 hr [2]: 1.65
590 nm absorbance normalized to zero hour (substrate use), 3 hr [2]: 2.42
590 nm absorbance normalized to zero hour (substrate use), 4 hr [2]: 2.37
590 nm absorbance normalized to zero hour (substrate use), 5 hr [2]: 2.39
590 nm absorbance normalized to zero hour (substrate use), 6 hr [2]: 2.28
590 nm absorbance normalized to zero hour (substrate use), 7 hr [2]: 2.37
590 nm absorbance normalized to zero hour (substrate use), 8 hr [2]: 2.01
590 nm absorbance normalized to zero hour (substrate use), 9 hr [2]: 2.18
590 nm absorbance normalized to zero hour (substrate use), 10 hr [2]: 2.16
590 nm absorbance normalized to zero hour (substrate use), 11 hr [2]: 2.35
590 nm absorbance normalized to zero hour (substrate use), 1 hr [3]: 1.24
590 nm absorbance normalized to zero hour (substrate use), 2 hr [3]: 1.65
590 nm absorbance normalized to zero hour (substrate use), 3 hr [3]: 2.42
590 nm absorbance normalized to zero hour (substrate use), 4 hr [3]: 2.37
590 nm absorbance normalized to zero hour (substrate use), 5 hr [3]: 2.39
590 nm absorbance normalized to zero hour (substrate use), 6 hr [3]: 2.28
590 nm absorbance normalized to zero hour (substrate use), 7 hr [3]: 2.37
590 nm absorbance normalized to zero hour (substrate use), 8 hr [3]: 2.01
590 nm absorbance normalized to zero hour (substrate use), 9 hr [3]: 2.18
590 nm absorbance normalized to zero hour (substrate use), 10 hr [3]: 2.16
590 nm absorbance normalized to zero hour (substrate use), 11 hr [3]: 2.35

— US11083725B2 (priority 2014, dated 2021)
